Patent US4061779A, “Naphthalene derivatives having anti-inflammatory activity” (Beecham Group Limited, priority 1973, dated 1977)
Like-named read-outs stand apart in the source and are kept apart here.

What was measured:
[1] = test system: oestrogenicity; test: Allen-Doisy Test, oestrogenic activity (mouse); format: in vivo
Source text: (§1) Using a conventional Allen-Doisy Test, the Oestrogenic activity of certain compounds of the invention was ascertained. The anti-inflammatory activity of certain compounds of the invention was ascertained by using a standard Rat Paw Carrageenin Test.

[2] = test system: oestrogenicity; test: Allen-Doisy Test, oestrogenic activity (rat); format: in vivo
Source text: as §1

[3] = test system: Rat Paw Carrageenin; test: standard Rat Paw Carrageenin Test, anti-inflammatory activity; format: in vivo
Source text: as §1

[4] = test system: Carrageenin Induced Oedema; test: Carrageenin Induced Oedema in Rats; format: in vivo, rat
Source text: a. Carrageenin Induced Oedema in Rats

[5] = test system: UV Induced Erythrema; test: UV Induced Erythrema in Guinea Pigs; format: in vivo, guinea pig; conditions: Cavia porcellus, po
Source text: b. UV Induced Erythrema in Guinea Pigs

[6] = test system: Cotton Pellet Induced Granuloma; test: Cotton Pellet Induced Granuloma in Rats; format: in vivo, rat; conditions: 50 mg/kg p.o., day 0 to 5 days
Experimental: c. Cotton Pellet Induced Granuloma in Rats
Consistent activity (reducing induced granuloma by more than 30%) has been observed at 50 mg/kg p.o. dosed from day 0 to 5 days.

[7] = test system: Adjuvant arthritis; test: Adjuvant Arthritis in Rats; format: in vivo, rat; conditions: 60 mg/kg p.o. daily
Experimental: d. Adjurant Arthritis in Rats
Adjuvant arthritis is reduced in rats by the daily administration of doses of 60 mg/kg p.o.

[8] = test system: cultured mouse peritoneal macrophages; test: Macrophage Plasminogen Activator Release Test; format: cell-based; conditions: 1 mg/ml
Source text: e. Macrophage Plasmongen Activator Release Test
On the test system of J. D. Vassalli et al., Cell, 8, 271-281 (1976), the compound […] caused 90% inhibition of the release of plasmogen activator from cultured mouse peritoneal macrophages.

[9] = test system: Phenyl-p-quinone Induced Writhing; test: Phenyl-p-quinone Induced Writhing in Mice; format: in vivo; conditions: Mus musculus, po, read-out: ED50 for analgesic activity
Source text: f. Phenyl-p-quinone Induced Writhing in Mice

[10] = test system: pyresis induced by Shigella endotoxin; test: Anti-pyretic Effect in Rabbits; format: in vivo, rabbit; conditions: doses down to 100 mg/kg p.o.
Source text: g. Anti-pyretic Effect in Rabbits

[11] = test system: release of corticosteroids from the adrenal gland; test: Interactions with the Adrenal/Pituitary Axis; format: in vivo; conditions: 140 mg/kg p.o./day, five days
Source text: h. Interactions with the Adrenal/Pitutary Axis

[12] = test system: uterine weight; test: Oestrogenic Test in Rats (ovariectomised rats, uterine weight); format: in vivo, rat; conditions: 200 mg/kg p.o. and 600 mg/kg p.o., 4 days
Source text: i. Oestrogenic Test in Rats

[13] = test system: seminal vesicles, prostate gland or levator ani muscles; test: Anabolic/Androgenic Activity in Rats; format: in vivo, rat; conditions: 200 mg/kg p.o.
Source text: j. Anabolic/Adrogenic Activity in Rats

[14] = test system: endometrium; test: Gestagenic Activity in Rabbits (Clauberg test); format: in vivo, rabbit; conditions: 200 mg/kg p.o., 4 days
Source text: k. Gestagenic Activity in Rabbits

[15] = test system: gastric secretion / gastric damage; test: Gastric Damage in Pyloric Ligated Rats; format: in vivo; conditions: up to 200 mg/kg intra-duodenally, pyloric ligated rat
Source text: 1. Gastric Damage in Pyloric Ligated Rats

[16] = test system: gastric erosions or ulceration; test: Ulcerogenic Activity in Rats; format: in vivo, rat; conditions: 250 or 500 mg/kg p.o.
Source text: m. Ulcerogenic Activity in Rats.

[17] = General statements on gastro-intestinal irritation, oestrogenicity and anti-inflammatory activity; format: in vivo
[18] = test system: gastro intestinal tract; test: Long term toxicity tests, gastro-intestinal tolerance; format: in vivo, rat; conditions: 180 mg/kg p.o. for 28 days

COc1ccc2cc(C(C)C(C)=O)ccc2c1 (centres unmarked) [3-(6'-methoxy-2'-naphthyl)-butan-2-one, 3-(6'-methoxy-2'-napthyl)-butan-2-one]
Oestrogenicity, Allan-Doisy test ([1]; 50 mg/kg sub.cut.): Inactive
Oestrogenicity, Allan-Doisy test ([2]; 600 mg/kg orally): Inactive
Anti-inflammatory, rat carrageenan ([3]; 100 mg/kg orally): Active

CCC(c1ccc2cc(OC)ccc2c1)C(C)(O)C(C)=O (centres unmarked) [3-hydroxy-3-methyl-4-(6'-methoxy-2'-naphthyl)-hexan-2-one]
Oestrogenicity, Allan-Doisy test ([1]; 50 mg/kg sub.cut.): Active
Anti-inflammatory, rat carrageenan ([3]; 100 mg/kg orally): Inactive

COc1ccc2cc(C(C)C(C)(O)C(C)=O)ccc2c1 (centres unmarked) [3-hydroxy-3-methyl-4-(6'-methoxy-2'-naphthyl)-pentan-2-one]
Oestrogenicity, Allan-Doisy test ([1]; 100 mg/kg sub.cut.): Active
Anti-inflammatory, rat carrageenan ([3]; 50 and 100 mg/kg orally): Active

COc1ccc2cc(C(C)CC(C)=O)ccc2c1 (centres unmarked) [4-(6'-methoxy-2'-naphthyl)-pentan-2-one]
Oestrogenicity, Allan-Doisy test ([2]; 200 mg/kg orally): Inactive
Oestrogenicity, Allan-Doisy test ([2]; 300 mg/kg orally): Active
Anti-inflammatory, rat carrageenan ([3]; 50 mg/kg orally): Slightly Active
Anti-inflammatory, rat carrageenan ([3]; 100 mg/kg orally, 1 hr. after dosing): Active
Anti-inflammatory, rat carrageenan ([3]; 300 mg/kg orally): Active

COc1ccc2cc(CCC(C)=O)ccc2c1 [4-(6'-methoxy-2'-naphthyl)butan-2-one]
reduction in induced oedema volume ([4]; 5, 10, 35 and 70 mg/kg p.o.): significant reduction
ED25 ([4]; Rattus norvegicus, po, rats): 7 to 10 mg/kg
Activity in adrenalectomised rats ([4]; adrenalectomised rats): Activity is maintained
ED50 [5]: 9 to 15 mg/kg
changes in body weight or in weight of spleen, thymus, kidney, liver or adrenal glands [6]: not accompanied by marked changes
Adjuvant arthritis [7]: reduced
inhibition of the release of plasminogen activator [8]: slight inhibition
ED50 ([9]; mice): ~110 mg/kg
reduction of pyresis induced by intravenous Shigella endotoxin [10]: reduced pyresis
interference with release of corticosteroids in response to ACTH administration or to ether stress [11]: does not interfere
increase in uterine weight [12]: did not result in any increase in uterine weight
increase in weight of seminal vesicles, prostate gland or levator ani muscles ([13]; 4 days, castrated young male rats): did not result in any increase
interference with androgenic/anabolic activity of concomitantly administered testosterone ([13]; testosterone 1 mg/kg s.c.): did not interfere
uterine hypertrophy or progestational changes in the endometrium [14]: did not result in uterine hypertrophy or progestational changes in the endometrium
overt gastric damage [15]: nor did overt gastric damage result
systemically mediated effect on the volume of gastric secretion [15]: have not been found to have a systemically mediated effect
gastric erosions, longer contact times ([16]; longer than 4 hours): in some cases to some degree of erosions
gastric erosions or ulceration ([16]; rats starved 18 hours, 1 or 4 hours after dosing): did not give rise to gastric erosions or ulceration
oestrogenic effects or gastric-irritant effects ([17]; at the therapeutic dose): not causing either oestrogenic effects or pronounced gastric-irritant effects
anti-inflammatory activity ([17]; general statement): good spectrum of anti-inflammatory activity
anti-pyretic and analgesic activity ([17]; general statement): anti-pyretic and analgesic activity
hormone like activity ([17]; general statement): free of hormone like activity
therapeutic ratio based on gastro intestinal irritancy ([17]; general statement): good therapeutic ratio
gastro intestinal tolerance [18]: well tolerated

COc1ccc2cc(C=CC(C)=O)ccc2c1 [4-(6-Methoxy-2-naphthyl)-3-buten-2-one]
Oestrogenicity, Allan-Doisy test ([2]; 300 mg/kg orally): Inactive
Anti-inflammatory, rat carrageenan ([3]; 300 mg/kg orally): Active

CC(=O)Oc1ccccc1C(=O)O [ASPIRIN, acetylsalicylic acid, reference compound]
ED50 [9]: ~60 mg/kg

COc1ccc2cc(/C(C)=C/C(C)=O)ccc2c1 [trans-4-(6'-methoxy-2'-naphthyl)-pent-3-ene-2-one]
Oestrogenicity, Allan-Doisy test ([1]; 100 mg/kg sub.cut.): Inactive
Anti-inflammatory, rat carrageenan ([3]; 100 mg/kg orally): Active
